Experimental data from US9856207B2, “Process for the production of ralfinamide salts substantially free from impurities having genotoxic effects” (Newron Pharmaceuticals S.p.A., priority 2010, dated 2018).

What was measured:
Assay type in all cases: physicochemical
[1] = Exposure of form A crystals to air stream of high relative humidity (water uptake, solid form conversion); details: 97% RH air stream at 25° C. for two months
Text: As an alternative procedure to the slurring with water for converting anhydrous form A crystals containing undesired amounts of genotoxic impurities and/or of the residual solvents known as potential precursors thereof into the corresponding hemihydrate pseudopolymorph form H substantially free from the genotoxic impurities and/or the residual solvents known as potential precursors thereof, the capability of anhydrous form A crystals to uptake water from air having high degree of relative humidity may be exploited. For example, full conversion of form A crystals into the corresponding hemihydrate pseudopolymorph form H crystals can be achieved by keeping a batch of ralfinamide methanesulfonate or its R-enantiomer form A crystals under air stream having relative humidity higher than 65% at a temperature from 5° C. to 30° C. for a period of time which may vary from days to weeks or months, depending on the relative humidity degree and the temperature.

[2] = Intrinsic Dissolution Rate (IDR) measurement according to USP General Chapter <1087>; details: ralfinamide methanesulfonate solid forms, USP <1087>
Experimental: Intrinsic dissolution rate is characteristic of each solid compound in a given solvent under fixed hydrodynamic conditions. The knowledge of this value helps in predicting if absorption would be dissolution rate-limited. The Intrinsic Dissolution Rate (IDR) measurement of ralfinamide methanesulfonate form A and H was performed according to USP General Chapter <1087>.

[3] = Solubility of the free base in water; details: also at 100° C.
Experimental: According to a preferred method to carry out the procedure defined above as “salt formation”, the formation of ralfinamide methanesulfonate form H or its R-enantiomer is carried out by using water as the sole solvent in which the free base and the methanesulfonic acid are contacted in substantially equimolecular proportion. According to a more preferred method, methanesulfonic acid is added to a suspension or emulsion of the free base in water. Generally 50-70 percent of the stoichiometric amount of the acid is initially added. […] The remaining portion of methanesulfonic acid to complete the stoichiometric amount required for the salification, or a small excess or defect (in both cases of up to 3 molar %), is subsequently added to the obtained solution. […] Therefore, it would not be possible to apply prior to the addition of the acid, any purification method implying the treatment of a solution of the free base with active charcoal or inert powder followed by filtration to remove small particles and/or impurities. […] The complementary amount of acid may be added soon after this treatment of the solution, preferably, after lowering the temperature of the mixture below 70° C.

| SMILES | Solid form stability under humid air [1] | Intrinsic Dissolution Rate [2] | Solubility in water [3] |
| --- | --- | --- | --- |
| CS(=O)(=O)O.C[C@H](NCc1ccc(OCc2ccccc2F)cc1)C(N)=O [Anhydrous form A, (S)-2-[4-(2-fluorobenzyloxy)benzylamino]propanamide methanesulfonate] | fully converted into the form H | 1.527 ± 0.265 mg · cm−2 · min−1 | – |
| CS(=O)(=O)O.C[C@H](NCc1ccc(OCc2ccccc2F)cc1)C(N)=O [Hemihydrate form H, (S)-2-[4-(2-fluorobenzyloxy)benzylamino]propanamide methanesulfonate] | – | 0.857 ± 0.012 mg · cm−2 · min−1 | – |
| C[C@@H](NCc1ccc(OCc2ccccc2F)cc1)C(N)=O [R-enantiomer, (R)-2-[4-(2-fluorobenzyloxy)benzylamino]propanamide] | – | – | practically insoluble in water |
| C[C@H](NCc1ccc(OCc2ccccc2F)cc1)C(N)=O [Ralfinamide free base, (S)-2-[4-(2-fluorobenzyloxy)benzylamino]propanamide] | – | – | practically insoluble in water |
